Common to all, as to format: functional
A short description of experiment [1]: In vitro cytotoxic activity against human gingival fibroblasts (HGF).
Experiment [2] is described as follows: In vitro cytotoxic activity against human salivary gland tumor (HSG) cells.
Experiment [3] can be described thus: In vitro cytotoxic activity against human squamous cell carcinoma (HSC-2) cells.

Structures are written as SMILES. Structures can show the parent of a compound that is named as a salt.

Turning to `O=C(c1nc2ccccc2o1)C(F)(F)F`, the results for the CC50 in experiment [1], in experiment [2] and in experiment [3] were 2200 µM, 1700 µM and 580 µM, respectively.

In the case of `O=C(CC(O)C(F)(F)F)c1ccccc1` (centres undefined), the CC50 in experiment [1] amounted to 1700 µM; in experiment [2], 1500 µM; in experiment [3], 240 µM.

Take `COc1cccc2c1C(=O)c1c(O)c3c(c(O)c1C2=O)C[C@@](O)(C(=O)CO)C[C@@H]3O[C@H]1C[C@H](N)[C@H](O)[C@H](C)O1` [DOXORUBICIN HYDROCHLORIDE]: the CC50 in experiment [3] stood at 4.1 µM.

Turning to `CC(=O)CC(=O)C(F)(F)F`, the CC50 in experiment [1] was more than 3200 µM; in experiment [2], 3200 µM; in experiment [3] it was 2500 µM.

Consider `O=C(c1ccccc1)C(O)C(F)(F)F` (centres undefined), for which the CC50 in experiment [1] was 1300 µM; in experiment [2], 240 µM; in experiment [3] it was 36 µM.

With `Cc1nc(CC(=O)C(F)(F)F)oc1C`, the CC50 in experiment [1] is 77 µM; in experiment [2] it was 150 µM; in experiment [3], less than 68 µM.

`C=CCOC(=O)N1C=C(C(=O)C(F)(F)F)CC1`: the values for the CC50 in experiment [1], in experiment [2] and in experiment [3] were 140 µM, 240 µM and 110 µM, respectively.

As to `O=C(Cc1nc2ccccc2s1)C(F)(F)F`, the results for the 50% cytotoxic concentration (CC50) in experiment [1], in experiment [2] and in experiment [3] were 430 µM, 390 µM and 150 µM, respectively.

On to `O=C(Cc1ccccc1)C(F)(F)F`, for which the results for the CC50 in experiment [1], in experiment [2] and in experiment [3] were 2200 µM, 1600 µM and 1400 µM, respectively.

For `OC(c1ccccc1)C(F)(F)F` (centres undefined), the 50% cytotoxic concentration (CC50) was 2200 µM in experiment [1], 2100 µM in experiment [2] and 1100 µM in experiment [3].

As for `OC(Cc1ccccc1)C(F)(F)F` (centres undefined), the CC50 in experiment [1] amounted to 1700 µM; in experiment [2], 1300 µM; in experiment [3], 460 µM.

As for `O=C(Oc1ccccc1)N1C=C(C(=O)C(F)(F)F)CC1`, the CC50 in experiment [1] worked out at 620 µM; in experiment [2] it was 270 µM; in experiment [3] it was 230 µM.

Take `CCCCCCC(=O)C(O)C(F)(F)F` (centres undefined): the CC50 in experiment [1] worked out at 790 µM; in experiment [2], 220 µM; in experiment [3], 90 µM.

As for `COC(=O)CC(=O)C(F)(F)F`, the CC50 in experiment [1] was more than 2900 µM; in experiment [2] it was 1800 µM; in experiment [3], 1300 µM.

For the molecule `O=C(c1ccc[nH]1)C(F)(F)F`, the CC50 is 2100 µM in experiment [1], 1800 µM in experiment [2] and 870 µM in experiment [3].

On to `O=C(Cc1ccccc1)C(O)C(F)(F)F` (centres undefined), for which the cytotoxic concentration (CC50) amounted to 310 µM in experiment [1], 110 µM in experiment [2] and 22 µM in experiment [3].

In the case of `O=C(c1c[nH]c2ccccc12)C(F)(F)F`, the figures for the CC50 in experiment [1], in experiment [2] and in experiment [3] were 2000 µM, 1300 µM and 94 µM, respectively.

As to `O=C(NCCCC(=O)C(O)C(F)(F)F)c1ccccc1` (centres undefined), the CC50 in experiment [1] came out at 420 µM; in experiment [2], 400 µM; in experiment [3] it was 31 µM.

As to `CC(=O)C(O)c1ccccc1` (centres undefined), the CC50 in experiment [1] was determined as 3200 µM; in experiment [2], 2900 µM; in experiment [3] it was 1700 µM.

Consider `O=C(c1ccccc1)C(F)(F)F`, for which the CC50 in experiment [1] is more than 2900 µM; in experiment [2] it was 2700 µM; in experiment [3], more than 2900 µM.

For `O=C(OC1c2ccccc2-c2ccccc21)N1C=C(C(=O)C(F)(F)F)CC1`, the CC50 in experiment [1] was determined as 230 µM; in experiment [2], 180 µM; in experiment [3], 140 µM.

For the molecule `O=C(Cc1nc2ccccc2[nH]1)C(F)(F)F`, the CC50 worked out at 200 µM in experiment [1], 340 µM in experiment [2] and 53 µM in experiment [3].

For the molecule `O=C(C(=O)C(F)(F)F)c1ccccc1`, the results for the CC50 in experiment [1], in experiment [2] and in experiment [3] were 510 µM, 390 µM and 79 µM, respectively.

As for `O=C(CC(=O)C(F)(F)F)c1ccccc1`, the results for the CC50 in experiment [1], in experiment [2] and in experiment [3] were 1400 µM, 420 µM and 150 µM, respectively.

Take `O=C(Cc1nc2ccccc2o1)C(F)(F)F`: the figures for the CC50 in experiment [1], in experiment [2] and in experiment [3] were 630 µM, 79 µM and 43 µM, respectively.

As for `O=C(c1cccs1)C(F)(F)F`, the CC50 is more than 2800 µM in experiment [1], 2700 µM in experiment [2] and 1900 µM in experiment [3].

Consider `O=C(Cc1ccccn1)C(F)(F)F`, for which the half-maximal cytotoxic concentration (CC50) in experiment [1] turned out to be 2100 µM; in experiment [2], 1600 µM; in experiment [3], 620 µM.

In general, CC50 refers to the concentration that lowers cell viability or growth by half. Read a low CC50 as greater toxicity to the cells.

These data come from ChEMBL document CHEMBL1131868, “Alpha-trifluoromethylated acyloins induce apoptosis in human oral tumor cell lines” (1999).
